From US9974760B2, “Compositions and methods for treating cancer” (Chemo-Enhanced LLC, priority 2011, dated 2018)
Entries after “also recorded” stand apart in the source; their conditions may differ.

How the values were obtained:
Panc-1 cells = assay: Cell death in Panc-1 pancreatic cancer cells; format: cell-based
Experimental: (§1) FIGS. 3A-3H show synergistic anti-tumor effects of C6-ceramide and gemcitabine in vivo and in vitro. SCID/Beige/Taconic nude male mice (22-25 g; 6-8 weeks old) were ear tagged and randomized into 4 different groups (Control, Ceramide, gemcitabine, Ceramide+gemcitabine) combining 5 mice each prior to inoculation subcutaneous (s.c.) with 2×10^6 L3.6 cells in a 0.1 ml volume into the internal surface of the right thigh. Treatment was started 4 days after L3.6 cell injection with thrice weekly (3×/wk) intraperitoneal (i.p.) injections of gemcitabine (two doses: 5.0 and 10.0 mg/ml) with or without C6-ceramide (10 mg/ml) for 2 weeks. Mouse survival (FIGS. 3A, 3B, and 3E) and tumor volume (in cm^3; FIGS. 3C and 3D) were recorded (FIG. 3E). […] Mitomycin C was always present in the media to prevent cell proliferation from occurring. The data represent the mean±SD of at least triplicate experiments. *P<0.05 versus group without C6-ceramide presents. The experiments were repeated at least three times and similar results were observed.
(§2) Cell viability was measured by the 3-[4m5-dimethylthylthiazol-2-y]-2.5 diphenyltetrazolium bromide (MTT) method, as described in Cao et al. (2009) Sci. Signal, 2:RA17. Briefly, the cells were collected and seeded in 96-well plate at a density of 2×10^5 cells/cm^2. Different seeding densities were optimized at the beginning of the experiments. […] The medium was subsequently aspirated from each well and 150 ul of DMSO (Sigma, St. Louis, Mo.) was added to dissolve formazan crystals and the absorbance of each well was obtained using a Dynatech MR5000 plate reader at a test wavelength of 490 nm with a reference wavelength of 630 nm.
(§3) The possible combination effect of C6-ceramide on gemcitabine-induced cytotoxicity (in vitro) and regression (in vivo) of the L3.6 pancreatic cancer cell was also tested according to the methods described in Examples 2 and 3. […] A synergistic anti-tumor effect of gemcitabine and C6-ceramide in multiple pancreatic cancer cells in vitro was also determined.

MIA-PaCa2 cells = assay: Cell death in MIA-PaCa2 pancreatic cancer cells; format: cell-based
Experimental: as §1, §2, §3

AKT/mTORC1 = assay: Western Blot of AKT/mTORC1 activation in L3.6 cells; format: cell-based; conditions: for PI3K/AKT/mTOR activation: Taxol alone
Experimental: (§4) Pancreatic cancer cell lines L3.6 cells were left untreated or treated with gemcitabine (Gem, 1 μg/ml) or taxol (1.5 μg/ml) in the presence or absence of C6-ceramide (10 μg/ml) for 2, 4 and 6 hours, AKT/mTORC1 and ERK activation were detected by Western Blot using indicated antibodies (FIGS. 5A and 5C). p-AKT (S473) and p-ERK at 4 hour time intervals for each treatment quantified (FIGS. 5B and 5D). L3.6 cells were pretreated with various inhibitors including PI3K/AKT inhibitor LY 294002 (LY, 1 μM), mTORC1 inhibitor rapamycin (100 nM), MEK/ERK inhibitor U0126 (1 μg/ml) or gemcitabine (1 μg/ml) for 48 hours, cell death was detected 48 hours later (FIG. 5E).
(§5) As described in Cao et al. (2009) Sci. Signal, 2:RA17, aliquots of 30-40 μg of protein from each sample (treated as indicated in the legends) were separated by 10% SDS-polyacrylamide gel electrophoresis (SDS-PAGE) and transferred onto a polyvinylidene difluoride (PVDF) membrane (Millipore, Bedford, Mass.). After blocking with 10% instant nonfat dry milk for 1 hour, membranes were incubated with specific antibodies overnight at 4° C. followed by incubation with secondary antibodies (HRP-conjugated anti-rabbit or anti-mouse IgG at the appropriate dilutions) for 60 minutes to 1 hour at room temperature. Antibody binding was detected with the enhanced chemiluminescence (ECL) detection system (Amersham Biosciences, Piscataway, N.J.).

ERK = assay: Western Blot of ERK activation in L3.6 cells; format: cell-based
Experimental: as §4, §5

[1] = tested on: L3.6 pancreatic cancer cells; assay: Cell viability / cell death (MTT) in L3.6 pancreatic cancer cells; format: cell-based, human; conditions: gemcitabine 1.5 μg/ml
Gab1 = Gab1 activation in wildtype and Gab1 knockout MEFs; format: cell-based; conditions: wildtype vs Gab1 knockout MEFs
From the text: One of the most studied scaffold proteins for AKT activation is Gab1. Physical association between p85 and Gab1 is crucial in mediating the PI3K/AKT signaling pathway induced by a variety of stimuli. […] It is believed that that Gab1 is a key adaptor for taxol and gemcitabine induced PI3K/AKT/mTOR activation and chemoresistance response. To confirm this rationale, wildtype and Gab1 knockout MEFs and Gab1 siRNA can be used to test taxol and gemcitabine induced PI3K/AKT/mTOR and cell death. Interaction between Gab1 and p85 after Taxol and Gemcitabine treatment can also be tested in L3.6 cells.

With `CCCCCCCCCCCCC/C=C/[C@@H](O)[C@H](CO)NC(=O)CCCCC` [C6-ceramide, N-hexanoyl-D-sphingosine] the sensitization to cetuximab (Panc-1 cells; PANC-1, activating KRAS mutation) was “markedly sensitized”, the cancer cell death (Panc-1 cells; Panc-1, gemcitabine 1.5 μg/ml) was “moderate effect” and the sensitization to cetuximab (MIA-PaCa2 cells; MIA PaCa-2, activating KRAS mutation) was “markedly sensitized”. The cancer cell death (MIA-PaCa2 cells; MIA cells, gemcitabine 1.5 μg/ml) was “moderate effect”, the “effect on taxol induced pro-survival PI3K/AKT/mTOR pathway” value (AKT/mTORC1; C6-ceramide added to taxol) was “dramatically reduces” and the “ERK activation / signaling” value (ERK; L3.6 cells, Western Blot) was “induced moderate survival of AKT/mTORC1 and ERK activation; also recorded: inhibited”. For the same molecule, the cancer cell death [1] was “moderate effect”.

For `CC(=O)O[C@H]1C(=O)[C@@]2(C)[C@H]([C@H](OC(=O)c3ccccc3)[C@]3(O)C[C@H](OC(=O)[C@H](O)[C@@H](NC(=O)c4ccccc4)c4ccccc4)C(C)=C1C3(C)C)[C@]1(OC(C)=O)CO[C@@H]1C[C@@H]2O` [paclitaxel], the PI3K/AKT/mTOR activation (AKT/mTORC1) was “no effect”, the PI3K/AKT/mTOR activation (AKT/mTORC1; listed as Taxol) was “strongly induce” and the “effect on C6-ceramide induced AKT de-phosphorylation or inhibition” value (AKT/mTORC1; added to C6-ceramide) was “dramatically enhanced”. For the same molecule, the “effect on C6-ceramide inhibition of ERK activation” value (ERK; added to C6-ceramide) was “enhanced” and the Gab1 activation (Gab1) was “induces Gab1 activation in wildtype but not Gab1 knockout MEFs”.
